These results are taken from patent US7906709B2, “Methods for breeding glyphosate resistant plants and compositions thereof” (priority 2006, dated 2011).

The test system of assay [1] is R biotype of the California rigid ryegrass. Nature of the assay: Glyphosate drops on leaves, resistant biotype. The class given is in vivo, Lolium rigidum. The settings on record: three 2 µl drops on two leaves, corresponds to 1.12 kg ai ha^-1; one week after treatment; ROUNDUP ULTRA (isopropylamine salt). The procedure:
Rigid ryegrass (Lolium rigidum Gaud.) plants are collected from an almond orchard intensively treated with glyphosate since 1984. The collected plants are grown and seed produced in greenhouse. The resistant, intermediate and susceptible biotypes are selected in the first generation using 1.12, 2.24, and 3.36 kg ai ha^−1 rates of glyphosate. Further selection is continued with a high glyphosate rate (8.96 kg ai ha^−1) to select for the resistant and with the low rate (0.28 kg ai ha^−1) to select for the susceptible individuals. The resistant (R) and susceptible (S) biotypes used in this example are generated from the 5th and 4th cycle, respectively.
R and S biotypes of the California rigid ryegrass are grown individually to the fully vegetatively mature stage prior to seedhead formation. In one experiment, two fully mature leaves of each plant (one R and one S biotypes) are treated with three 2 μl drops of glyphosate (glyphosate isopropylamine salt, ROUNDUP ULTRA™, Monsanto Co., St. Louis, Mo.) solution applied to the upper leaf surface. This corresponds to a field rate of 1.12 kg ai ha^−1 glyphosate at a volume of 187 L ha^−1 and pressure of 172.5 kPa. One week after treatment, the S biotype is dead, but no injury is observed on the R biotype.

Assay [2] has as its system EPSPS from R and S biotypes of rigid ryegrass. Description: EPSPS activity assay in the presence of glyphosate. The class given is biochemical, Lolium rigidum. The settings on record: glyphosate from 5 to 5000 µM; crown tissue extract; R versus S biotype. The procedure: Extraction methods for EPSPS are modified from methods discussed in Boerboom et al., Weed Sci. 38:463-467 (1990). Crown tissue (0.5 gram fresh weight per sample) is harvested from California rigid ryegrass plants, frozen in liquid nitrogen, and grounded in a cold mortar with 150 mg polyvinylpolypyrrolidone (PVPP). The fine powder tissue is ground further in 0.5 ml extraction buffer (pH 7.5) containing 10 mM Trizma HC1, 1 mM ethylenediaminetetraacetic acid (EDTA), 10% (v/v) glycerol, 1 mg ml^−1 bovine serum albumin (BSA), 10 mM ascorbate, 1 mM benzamidine (BAM), and 5 mM dithiothreitol (DTT). The mixture is centrifuged at 15,000×g for 10 min, and the supernatant is desalted in 1.0 ml Sephadex G-50 column (^7 MICRO-SPINS® Shephadex G-50 column, Life Science Products Inc., Frederick, Colo.) and further centrifuged at 1,000×g for 3 min. Total protein in the supernatant is quantified spectrometrically at 595 nm followed the method discussed in Bradford, Anal. Biochem 72:248-254 (1976).
Assay of EPSPS activity is modified from methods discussed in Westwood and Weller, Weed Sci. 45:2-11 (1997). […]
Data from duplicate experiments with three replications of each treatment are analyzed by non-linear regression and fitted to a log-logistic model, […]

Assay [3] concerns perennial ryegrass. Nature of the assay: Glyphosate sensitivity of perennial ryegrass parent. It counts as in vivo, Lolium perenne. As to conditions: sensitive parent. As for the experimental part:
(§1) The R biotype of California rigid ryegrass, which survived 8× glyphosate and perennial ryegrass, which died from 0.25× of glyphosate, are grown individually in 950-ml pots with professional planting mix media as discussed above. Plants are maintained in greenhouse with supplemental light, watered daily, and fertilized weekly with NPK water soluble fertilizer (20-20-20). At the mature vegetative stage, perennial ryegrass plants are vernalized in the growth chamber with the temperature 4 ±1 C, 8 h day and 16 h night. After 4 weeks vernalization, the plants are removed and maintained in greenhouse until flowering.
Segregation of glyphosate sensitivity in the F2 population is illustrated in FIG. 4. The percentage of the sensitive plants in F2 (16 percent) is higher than expected due to the glyphosate rate (0.5×) exceeded the sensitivity level of sensitive parents.

For assay [4], the system named is F1 hybrid of perennial ryegrass and glyphosate resistant rigid ryegrass. Description: Glyphosate sensitivity of F1 hybrid population. It counts as in vivo, Lolium perenne x Lolium rigidum. The settings on record: 50 plants, 3 weeks after treatment. The procedure: as §1
Seed heads of perennial ryegrass are designated to be pollinated by California rigid ryegrass also vice-verse because both of the species are allogamus plants. Both are known to be self-incompatible. After the emergence of seed heads and before the pollen opened, one plant from each species is isolated in one room of greenhouse. To provide conditions for cross-pollination, perennial ryegrass and rigid ryegrass plants are placed next to each other. During the pollination period, plants are maintained regularly as mentioned previously until the seed reached the maturity. The successful hybridization is indicated with the full development of mature seeds which had brown color. Seeds are harvested from both perennial and rigid ryegrass. Seeds from perennial ryegrass hybrids are used for further evaluation.
Seeds of the F1 hybrid harvested from perennial ryegrass are grown and maintained as individual plants in the greenhouse as described previously. At the tillering stage, 50 plants for each of glyphosate rates (0.25, 0.5, 1.0, 1.5, 2.0, 4.0, and 8×, where x=1.12 kg ha^−1) are evaluated for sensitivity or resistance. Glyphosate is delivered in 187 L ha^−1 spray solutions with 172.5 kPa pressure using a flat fan nozzle. The dead or survivors in each treatment are counted 3 weeks after treatment and the plants with the highest level of resistance are further maintained and intercrossed to generate F2.

[5] abbreviates: Glyphosate 0.25 kg ha^-1 as headed.
Setting [6] is: Glyphosate 0.50 kg ha^-1 as headed.
Where [7] appears, read: Glyphosate 1 kg ha^-1 as headed.
Where [8] appears, read: Glyphosate 4 kg ha^-1 as headed.
Setting [9] is: Glyphosate 8 kg ha^-1 as headed.

On to `O=C(O)CNCP(=O)(O)O` [glyphosate, N-(phosphonomethyl) glycine], for which the Plant injury result in assay [1] is given as “no injury”. The “inhibition of EPSPS activity” value in assay [2] was “significantly inhibited more in S than in R”. For the same compound, in assay [3], the “sensitivity level (glyphosate rate from which plants died)” value is listed as 0.25 ×. In addition, the “Severely injured and dead” value in assay [4] (setting [5]) is 0%; in assay [4] (setting [6]), 6%; in assay [4] (setting [7]), 10%; in assay [4] (Glyphosate 2 kg ha^-1 as headed) it was 10%; in assay [4] (setting [8]), 100%; in assay [4] (setting [9]) it was 100%. In addition, the Survivors in assay [4] (setting [5]) is 100%; in assay [4] (setting [6]), 94%; in assay [4] (setting [7]), 90%; in assay [4] (Glyphosate 2 kg ha^-1 as headed (2× in text)), 90%; in assay [4] (Glyphosate 2 kg ha^-1 as headed (2× in text), listed as Glyphosate), 90**) Percent; in assay [4] (setting [8]) it was 0%. In assay [4] (setting [9]), this compound came in with a Survivors of 0%.
